Measurements taken from ChEMBL document CHEMBL3046023, “Synthesis, in vitro cytotoxicity, and anti-microbial studies of 1,4-bis(4-substituted-5-mercapto-1,2,4-triazol-3-yl)butanes” (Med Chem Res, 2012).
≈ marks a conversion by molar mass, not a printed value.

Assays:
[1] = system: Pseudomonas aeruginosa; assay: Antibacterial activity against Pseudomonas aeruginosa ATCC 27853 after 24 hr by serial dilution method; format: functional; details: ATCC 27853, 24 h
[2] = system: Escherichia coli; assay: Antibacterial activity against Escherichia coli ATCC 25922 after 24 hr by serial dilution method; format: functional; details: ATCC 25922, 24 h
[3] = system: Staphylococcus aureus; assay: Antibacterial activity against Staphylococcus aureus ATCC 25923 after 24 hr by serial dilution method; format: functional; details: ATCC 25923, 24 h
[4] = system: Bacillus subtilis; assay: Antibacterial activity against Bacillus subtilis ATCC 6633 after 24 hr by serial dilution method; format: functional; details: ATCC 6633, 24 h
[5] = system: MDA-MB-231; assay: Cytotoxicity against Homo sapiens (human) MDA-MB-231 cells after 72 hr by MTT assay; format: functional, cell-based; details: MDA-MB-231, 72 h
[6] = system: HT-29; assay: Cytotoxicity against Homo sapiens (human) HT-29 cells after 72 hr by MTT assay; format: functional, cell-based; details: HT-29, 72 h
[7] = system: A549; assay: Cytotoxicity against Homo sapiens (human) A549 cells after 72 hr by MTT assay; format: functional, cell-based; details: A549, 72 h

MIC [1] [µg/mL]	MIC [2] [µg/mL]	MIC [3] [µg/mL]	MIC [4] [µg/mL]	Structure (SMILES)	IC50 [5] [µM]	IC50 [6] [µM]	IC50 [7] [µM]
100 (≈ 172 µM)	12.5 (≈ 21.5 µM)	12.5 (≈ 21.5 µM)	12.5 (≈ 21.5 µM)	Cc1ccc(-n2c(CCCCc3nnc(SCC(=O)NN)n3-c3ccc(C)cc3)nnc2SCC(=O)NN)cc1	32.2	31.2	36.9
	25 (≈ 43 µM)	25 (≈ 43 µM)	25 (≈ 43 µM)	Cc1cccc(-n2c(CCCCc3nnc(SCC(=O)NN)n3-c3cccc(C)c3)nnc2SCC(=O)NN)c1	40.2	38.2	39.1
12.5 (≈ 19.5 µM)	12.5 (≈ 19.5 µM)	12.5 (≈ 19.5 µM)	6.25 (≈ 9.75 µM)	CCOc1ccc(-n2c(CCCCc3nnc(SCC(=O)NN)n3-c3ccc(OCC)cc3)nnc2SCC(=O)NN)cc1	13.2	5.16	9.13
	50 (≈ 88.5 µM)		100 (≈ 177 µM)	NNC(=O)CSc1nnc(CCCCc2nnc(SCC(=O)NN)n2C2CCCCC2)n1C1CCCCC1	70.2	66.2	65.3
	100 (≈ 195 µM)		100 (≈ 195 µM)	CCCCn1c(CCCCc2nnc(SCC(=O)NN)n2CCCC)nnc1SCC(=O)NN	59.8	63.4	69.3
	100 (≈ 169 µM)		100 (≈ 169 µM)	CCOC(=O)CSc1nnc(CCCCc2nnc(SCC(=O)OCC)n2C2CCCCC2)n1C1CCCCC1	70.4	65.3	51.9
	100 (≈ 185 µM)		100 (≈ 185 µM)	CCCCn1c(CCCCc2nnc(SCC(=O)OCC)n2CCCC)nnc1SCC(=O)OCC	71.4	69.8	61.5
100 (≈ 181 µM)	25 (≈ 45.2 µM)	25 (≈ 45.2 µM)	25 (≈ 45.2 µM)	NNC(=O)CSc1nnc(CCCCc2nnc(SCC(=O)NN)n2-c2ccccc2)n1-c1ccccc1	69.9	65.3	63.2
100 (≈ 164 µM)	100 (≈ 164 µM)	100 (≈ 164 µM)	100 (≈ 164 µM)	CCOC(=O)CSc1nnc(CCCCc2nnc(SCC(=O)OCC)n2-c2ccc(C)cc2)n1-c1ccc(C)cc1	24.3	13.5	9.13
100 (≈ 164 µM)	50 (≈ 82.1 µM)	100 (≈ 164 µM)	50 (≈ 82.1 µM)	CCOC(=O)CSc1nnc(CCCCc2nnc(SCC(=O)OCC)n2-c2cccc(C)c2)n1-c1cccc(C)c1	25.2	25.8	23.3
100 (≈ 150 µM)	25 (≈ 37.4 µM)	50 (≈ 74.8 µM)	25 (≈ 37.4 µM)	CCOC(=O)CSc1nnc(CCCCc2nnc(SCC(=O)OCC)n2-c2ccc(OCC)cc2)n1-c1ccc(OCC)cc1	15.1	13.2	9.3
	100 (≈ 144 µM)		50 (≈ 71.9 µM)	CCOc1ccc(-n2c(CCCCc3nnc(SC(=O)N(CC)CC)n3-c3ccc(OCC)cc3)nnc2SC(=O)N(CC)CC)cc1	71.6	75	51.9
	100 (≈ 162 µM)		100 (≈ 162 µM)	CCN(CC)C(=O)Sc1nnc(CCCCc2nnc(SC(=O)N(CC)CC)n2C2CCCCC2)n1C1CCCCC1	66.2	69.9	51.8
				CCCCn1c(CCCCc2nnc(SC(=O)N(CC)CC)n2CCCC)nnc1SC(=O)N(CC)CC	70.3	64.5	63.1
100 (≈ 172 µM)	50 (≈ 86.1 µM)	100 (≈ 172 µM)	100 (≈ 172 µM)	CCOC(=O)CSc1nnc(CCCCc2nnc(SCC(=O)OCC)n2-c2ccccc2)n1-c1ccccc1	32.2	51.2	34.5
50 (≈ 82.4 µM)	12.5 (≈ 20.6 µM)	50 (≈ 82.4 µM)	25 (≈ 41.2 µM)	CCN(CC)C(=O)Sc1nnc(CCCCc2nnc(SC(=O)N(CC)CC)n2-c2ccccc2)n1-c1ccccc1	14.9	14.3	19.3
25 (≈ 39.4 µM)	12.5 (≈ 19.7 µM)	25 (≈ 39.4 µM)	12.5 (≈ 19.7 µM)	CCN(CC)C(=O)Sc1nnc(CCCCc2nnc(SC(=O)N(CC)CC)n2-c2ccc(C)cc2)n1-c1ccc(C)cc1	8.17	3.45	3.23
25 (≈ 39.4 µM)	12.5 (≈ 19.7 µM)	50 (≈ 78.8 µM)	25 (≈ 39.4 µM)	CCN(CC)C(=O)Sc1nnc(CCCCc2nnc(SC(=O)N(CC)CC)n2-c2cccc(C)c2)n1-c1cccc(C)c1	17.2	10.2	15.2
				COc1cccc2c1C(=O)c1c(O)c3c(c(O)c1C2=O)C[C@@](O)(C(=O)CO)C[C@@H]3O[C@H]1C[C@H](N)[C@H](O)[C@H](C)O1 [DOXORUBICIN]	0.1	0.07	0.09

Structure (SMILES)	MIC [1] [µg/mL]	MIC [2] [µg/mL]	MIC [3] [µg/mL]	MIC [4] [µg/mL]	IC50 [5] [µM]	IC50 [6] [µM]	IC50 [7] [µM]
CC1(C)S[C@@H]2[C@H](NC(=O)[C@H](N)c3ccccc3)C(=O)N2[C@H]1C(=O)O [AMPICILLIN]	12.5 (≈ 35.8 µM)	6.25 (≈ 17.9 µM)	6.25 (≈ 17.9 µM)	12.5 (≈ 35.8 µM)			
